According to ChEMBL document CHEMBL6078677, “Discovery and optimization of tetrahydroacridine derivatives as a novel class of antibiotics against multidrug-resistant Gram-positive pathogens by targeting type I signal peptidase and disrupting bacterial membrane” (Eur J Med Chem, 2025):
pKd: −log10 of the molar value. Values after ≈ are worked out from the molar mass of the structure shown. Active and inactive are the calls of the source. The rule behind the calls is not given here.

What was measured:
Staphylococcus aureus [1] = assay: Antimicrobial activity against Staphylococcus aureus ATCC 29213 assessed as inhibition of visible growth of bacteria incubated for 20 hrs by broth microdilution method; assay type: functional
Enterococcus faecium [2] = assay: Antimicrobial activity against Enterococcus faecium QF31 harboring erythromycin resistance rRNA methylase B and chloramphenicol-florfenicol resistance methylase assessed as inhibition of visible growth of bacteria incubated for 20 hrs by broth microdilution method; assay type: functional
Enterococcus faecalis [3] = assay: microbe, parasite or virus in culture; assay type: functional; settings: SF23-1, time 20 hrs
Description: Antimicrobial activity against Enterococcus faecalis SF23-1 harboring erythromycin-resistance rRNA methylase B, tetracycline efflux protein L and chloramphenicol-florfenicol resistance methylase assessed as inhibition of visible growth of bacteria incubated for 20 hrs by broth microdilution method

Streptococcus suis [4] = assay: Antimicrobial activity against Streptococcus suis P1/7 assessed as inhibition of visible growth of bacteria incubated for 20 hrs by broth microdilution method; assay type: functional
Staphylococcus aureus [5] = assay: Antimicrobial activity against Staphylococcus aureus YZSA-15 harboring erythromycin resistance rRNA methylase C and vancomycin resistance locus assessed as inhibition of visible growth of bacteria incubated for 20 hrs by broth microdilution method; assay type: functional
Staphylococcus aureus [6] = assay: Antimicrobial activity against Staphylococcus aureus YZSA-21 harboring erythromycin resistance rRNA methylase C assessed as inhibition of visible growth of bacteria incubated for 20 hrs by broth microdilution method; assay type: functional
Staphylococcus aureus [7] = assay: Antimicrobial activity against Staphylococcus aureus YZSA-24 harboring erythromycin resistance rRNA methylase C and methicillin resistance gene resistance locus assessed as inhibition of visible growth of bacteria incubated for 20 hrs by broth microdilution method; assay type: functional
Staphylococcus aureus [8] = assay: microbe, parasite or virus in culture; assay type: functional; settings: M92-1, time 20 hrs
Description: Antimicrobial activity against Staphylococcus aureus M92-1 harboring erythromycin resistance rRNA methylase B, tetracycline efflux protein L and oxazolidinone-phenicol transferable resistance gene assessed as inhibition of visible growth of bacteria incubated for 20 hrs by broth microdilution method

Staphylococcus aureus [9] = assay: microbe, parasite or virus in culture; assay type: functional; settings: M147-2, time 20 hrs
Description: Antimicrobial activity against Staphylococcus aureus M147-2 harboring erythromycin resistance rRNA methylase B, tetracycline efflux protein L and chloramphenicol-florfenicol resistance methylase assessed as inhibition of visible growth of bacteria incubated for 20 hrs by broth microdilution method

Enterococcus faecium [10] = assay: Antimicrobial activity against Enterococcus faecium HFY01 assessed as inhibition of visible growth of bacteria incubated for 20 hrs by broth microdilution method; assay type: functional
Enterococcus faecium [11] = assay: Antimicrobial activity against Enterococcus faecium MC38 harboring erythromycin resistance rRNA methylase B and oxazolidinone-phenicol transferable resistance gene assessed as inhibition of visible growth of bacteria incubated for 20 hrs by broth microdilution method; assay type: functional
Enterococcus faecalis [12] = assay: Antimicrobial activity against Enterococcus faecalis JH2-2 assessed as inhibition of visible growth of bacteria incubated for 20 hrs by broth microdilution method; assay type: functional
Enterococcus faecalis [13] = assay: Antimicrobial activity against Enterococcus faecalis ES01 harboring erythromycin-resistance rRNA methylase B and vanB-type vancomycin-resistance locus assessed as inhibition of visible growth of bacteria incubated for 20 hrs by broth microdilution method; assay type: functional
Enterococcus faecalis [14] = assay: Antimicrobial activity against Enterococcus faecalis J2 harboring erythromycin-resistance rRNA methylase B and oxazolidinone phenicol transferable resistance gene assessed as inhibition of visible growth of bacteria incubated for 20 hrs by broth microdilution method; assay type: functional
Streptococcus suis [15] = assay: microbe, parasite or virus in culture; assay type: functional; settings: SH0918, time 20 hrs
Description: Antimicrobial activity against Streptococcus suis SH0918 harboring erythromycin-resistance rRNA methylase B, tetracycline efflux protein O and oxazolidinone phenicol transferable resistance gene assessed as inhibition of visible growth of bacteria incubated for 20 hrs by broth microdilution method

Streptococcus pyogenes = assay: Antimicrobial activity against Streptococcus pyogenes DL02 harboring erythromycin-resistance rRNA methylase B assessed as inhibition of visible growth of bacteria incubated for 20 hrs by broth microdilution method; assay type: functional
Streptococcus agalactiae = assay: Antimicrobial activity against Streptococcus agalactiae DL03 harboring erythromycin-resistance rRNA methylase B assessed as inhibition of visible growth of bacteria incubated for 20 hrs by broth microdilution method; assay type: functional
Escherichia coli = assay: Antimicrobial activity against Escherichia coli ATCC 25922 assessed as inhibition of visible growth of bacteria incubated for 20 hrs by broth microdilution method; assay type: functional
Salmonella enteritidis = assay: Antimicrobial activity against Salmonella enteritis S1 assessed as inhibition of visible growth of bacteria incubated for 20 hrs by broth microdilution method; assay type: functional, Salmonella enterica subsp. enterica serovar Enteritidis; settings: Salmonella enterica
Klebsiella pneumoniae = assay: Antimicrobial activity against Klebsiella pneumoniae 9-1 assessed as inhibition of visible growth of bacteria incubated for 20 hrs by broth microdilution method; assay type: functional
Acinetobacter baumannii [16] = assay: Antimicrobial activity against Acinetobacter baumannii AB11 assessed as inhibition of visible growth of bacteria incubated for 20 hrs by broth microdilution method; assay type: functional
Acinetobacter baumannii [17] = assay: Antimicrobial activity against Acinetobacter baumannii 7979 assessed as inhibition of visible growth of bacteria incubated for 20 hrs by broth microdilution method; assay type: functional
Pseudomonas aeruginosa [18] = assay: Antimicrobial activity against Pseudomonas aeruginosa PA01 assessed as inhibition of visible growth of bacteria incubated for 20 hrs by broth microdilution method; assay type: functional
Pseudomonas aeruginosa [19] = assay: Antimicrobial activity against Pseudomonas aeruginosa PA14 assessed as inhibition of visible growth of bacteria incubated for 20 hrs by broth microdilution method; assay type: functional
Staphylococcus aureus [20] = assay: Bactericidal activity against Staphylococcus aureus ATCC 29213 assessed as decrease in bacterial number measured within 12 hrs by time-kill kinetics assay; assay type: functional, organism-based
Staphylococcus aureus [21] = assay: Bactericidal activity against Staphylococcus aureus ATCC 29213 assessed as log reduction in bacterial number at 4 times of MIC measured after 24 hrs by time-kill kinetics assay; assay type: functional
Staphylococcus aureus [22] = assay: Bactericidal activity against Staphylococcus aureus ATCC 29213 assessed as bacterial killing at 8 times of MIC measured within 12 hrs by time-kill kinetics assay; assay type: functional, organism-based
Staphylococcus aureus [23] = assay: Drug resistance, ratio of MIC for Staphylococcus aureus ATCC 29213 measured after 28 days to MIC for Staphylococcus aureus ATCC 29213 measured after 20 hrs; assay type: functional
[24] = Cytotoxicity against human HEp-2 cells assessed as cell viability at 16 times of MIC incubated for 48 hrs by CCK8 assay (reference value: 100 %); assay type: toxicity, cell-based; settings: read-out: Activity
[25] = Cytotoxicity against human HEp-2 cells assessed as cell viability at 8 times of MIC incubated for 48 hrs by CCK8 assay (reference value: 100 %); assay type: toxicity, cell-based; settings: read-out: Activity
[26] = Cytotoxicity against human HEp-2 cells assessed as cell viability at 4 times of MIC incubated for 48 hrs by CCK8 assay (reference value: 100 %); assay type: toxicity, cell-based; settings: read-out: Activity
[27] = Cytotoxicity against human HEp-2 cells assessed as cell viability at 2 times of MIC incubated for 48 hrs by CCK8 assay (reference value: 100 %); assay type: toxicity, cell-based; settings: read-out: Activity
[28] = Cytotoxicity against human HEp-2 cells assessed as cell viability at 1 time of MIC incubated for 48 hrs by CCK8 assay (reference value: 100 %); assay type: toxicity, cell-based; settings: read-out: Activity
[29] = Cytotoxicity against human Caco-2 cells assessed as cell viability at 16 times of MIC incubated for 48 hrs by CCK8 assay (reference value: 99.54 %); assay type: toxicity, cell-based; settings: read-out: Activity
[30] = Cytotoxicity against human Caco-2 cells assessed as cell viability at 8 times of MIC incubated for 48 hrs by CCK8 assay (reference value: 99.54 %); assay type: toxicity, cell-based; settings: read-out: Activity
[31] = Cytotoxicity against human Caco-2 cells assessed as cell viability at 4 times of MIC incubated for 48 hrs by CCK8 assay (reference value: 99.54 %); assay type: toxicity, cell-based; settings: read-out: Activity
[32] = Cytotoxicity against human Caco-2 cells assessed as cell viability at 2 times of MIC incubated for 48 hrs by CCK8 assay (reference value: 99.54 %); assay type: toxicity, cell-based; settings: read-out: Activity
[33] = Cytotoxicity against human Caco-2 cells assessed as cell viability at 1 time of MIC incubated for 48 hrs by CCK8 assay (reference value: 99.54 %); assay type: toxicity, cell-based; settings: read-out: Activity
[34] = Hemolytic activity in Kunming mouse erythrocytes measured after 1 hrs by absorbance based assay; assay type: toxicity, cell-based, Erythrocyte
[35] = Hemolytic activity in Kunming mouse erythrocytes assessed as hemolysis at 16 times of MIC measured after 1 hrs by absorbance based assay relative to control; assay type: toxicity, cell-based, Erythrocyte; settings: read-out: Activity
[36] = Hemolytic activity in Kunming mouse erythrocytes assessed as hemolysis at 8 times of MIC measured after 1 hrs by absorbance based assay relative to control; assay type: toxicity, cell-based, Erythrocyte; settings: read-out: Activity
[37] = Hemolytic activity in Kunming mouse erythrocytes assessed as hemolysis at 4 times of MIC measured after 1 hrs by absorbance based assay relative to control; assay type: toxicity, cell-based, Erythrocyte; settings: read-out: Activity
[38] = Hemolytic activity in Kunming mouse erythrocytes assessed as hemolysis at 2 times of MIC measured after 1 hrs by absorbance based assay relative to control; assay type: toxicity, cell-based, Erythrocyte; settings: read-out: Activity
[39] = Hemolytic activity in Kunming mouse erythrocytes assessed as hemolysis at 1 time of MIC measured after 1 hrs by absorbance based assay relative to control; assay type: toxicity, cell-based, Erythrocyte; settings: read-out: Activity
Signal peptidase I = Signal peptidase I (Escherichia coli K-12, UniProt P00803); assay: Binding affinity to recombinant 6His-tagged Escherichia coli LepB (77 to 324 residues) extracted from Escherichia coli BL21 (DE3) cells assessed as dissociation constant by MST analysis
Staphylococcus aureus [40] = assay: Antibacterial activity against methicillin-resistant Staphylococcus aureus YZSA-24 infected in cyclophosphamide-induced neutrophil depleted female ICR mouse model of skin infection assessed as log reduction in bacterial load at 1 %, TOP preadministered with cyclophosphamide for 5 days followed by bacterial administration and measured after 25 hrs of compound administration relative to vehicle group; assay type: functional

Sequence of Signal peptidase I (P00803 whole entry, the tested form may be a part): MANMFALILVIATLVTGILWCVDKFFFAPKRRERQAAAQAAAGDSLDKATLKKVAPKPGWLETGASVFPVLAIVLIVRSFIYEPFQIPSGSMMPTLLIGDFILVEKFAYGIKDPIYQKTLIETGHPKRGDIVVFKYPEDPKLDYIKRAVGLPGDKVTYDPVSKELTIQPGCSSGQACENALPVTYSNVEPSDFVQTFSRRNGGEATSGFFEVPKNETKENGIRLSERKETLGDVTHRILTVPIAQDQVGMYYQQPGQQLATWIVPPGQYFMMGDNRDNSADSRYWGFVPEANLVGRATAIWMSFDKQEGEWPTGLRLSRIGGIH

SMILES: CCCCCCc1ccc(-c2ccc(/C=C3\CC(C)Cc4c3nc3ccc(OC)cc3c4C(=O)O)cn2)cc1 (racemic)
- MIC (Staphylococcus aureus [1]): 4 µg/mL (≈ 7.68 µM)
- MIC (Enterococcus faecium [2]): 4 µg/mL (≈ 7.68 µM)
- MIC (Enterococcus faecalis [3]): 8 µg/mL (≈ 15.4 µM)
- MIC (Streptococcus suis [4]): 32 µg/mL (≈ 61.5 µM)
- MIC (Staphylococcus aureus [5]): 4 µg/mL (≈ 7.68 µM)
- MIC (Staphylococcus aureus [6]): 4 µg/mL (≈ 7.68 µM)
- MIC (Staphylococcus aureus [7]): 4 µg/mL (≈ 7.68 µM)
- MIC (Staphylococcus aureus [8]): 4 µg/mL (≈ 7.68 µM)
- MIC (Staphylococcus aureus [9]): 4 µg/mL (≈ 7.68 µM)
- MIC (Enterococcus faecium [10]): 4 µg/mL (≈ 7.68 µM)
- MIC (Enterococcus faecium [11]): 4 µg/mL (≈ 7.68 µM)
- MIC (Enterococcus faecalis [12]): 8 µg/mL (≈ 15.4 µM)
- MIC (Enterococcus faecalis [13]): 4 µg/mL (≈ 7.68 µM)
- MIC (Enterococcus faecalis [14]): 4 µg/mL (≈ 7.68 µM)
- MIC (Streptococcus suis [15]): 32 µg/mL (≈ 61.5 µM)
- MIC (Streptococcus pyogenes): 16 µg/mL (≈ 30.7 µM)
- MIC (Streptococcus agalactiae): 8 µg/mL (≈ 15.4 µM)
- MIC (Escherichia coli): > 128 µg/mL
- MIC (Salmonella enteritidis): > 128 µg/mL
- MIC (Klebsiella pneumoniae): > 128 µg/mL
- MIC (Acinetobacter baumannii [16]): > 128 µg/mL
- MIC (Acinetobacter baumannii [17]): > 128 µg/mL
- MIC (Pseudomonas aeruginosa [18]): > 128 µg/mL
- MIC (Pseudomonas aeruginosa [19]): > 128 µg/mL
- Activity (Staphylococcus aureus [20]): Dose-dependent-effect
- Activity (Staphylococcus aureus [21]): 2.6 log10CFU/ml
- Activity (Staphylococcus aureus [22]): Active
- Ratio (Staphylococcus aureus [23]): 4
- viability at 48 h, 16 times of MIC [24]: 1.91%
- viability at 48 h, 8 times of MIC [25]: 39%
- viability at 48 h, 4 times of MIC [26]: 64%
- viability at 48 h, 2 times of MIC [27]: 94.1%
- viability at 48 h, 1 time of MIC [28]: 101%
- viability at 48 h, 16 times of MIC [29]: 1.44%
- viability at 48 h, 8 times of MIC [30]: 17.8%
- viability at 48 h, 4 times of MIC [31]: 49.7%
- viability at 48 h, 2 times of MIC [32]: 73.5%
- viability at 48 h, 1 time of MIC [33]: 99.7%
- HC50 at 1 h [34]: 34.8 µg/mL
- hemolysis at 1 h, 16 times of MIC [35]: 72.5%
- hemolysis at 1 h, 8 times of MIC [36]: 55.8%
- hemolysis at 1 h, 4 times of MIC [37]: 0.98%
- hemolysis at 1 h, 2 times of MIC [38]: 0.33%
- hemolysis at 1 h, 1 time of MIC [39]: 0%
- pKd (Signal peptidase I): 4.68

SMILES: CC(=O)NC[C@H]1CN(c2ccc(N3CCOCC3)c(F)c2)C(=O)O1 [LINEZOLID]
- MIC (Staphylococcus aureus [1]): 1 µg/mL (≈ 2.96 µM)
- MIC (Enterococcus faecium [2]): 2 µg/mL (≈ 5.93 µM)
- MIC (Streptococcus suis [4]): 0.125 µg/mL (≈ 0.371 µM)
- MIC (Staphylococcus aureus [5]): 0.5 µg/mL (≈ 1.48 µM)
- MIC (Staphylococcus aureus [6]): 1 µg/mL (≈ 2.96 µM)
- MIC (Staphylococcus aureus [7]): 0.5 µg/mL (≈ 1.48 µM)
- MIC (Staphylococcus aureus [8]): 8 µg/mL (≈ 23.7 µM)
- MIC (Staphylococcus aureus [9]): 8 µg/mL (≈ 23.7 µM)
- MIC (Enterococcus faecium [10]): 2 µg/mL (≈ 5.93 µM)
- MIC (Enterococcus faecium [11]): 2 µg/mL (≈ 5.93 µM)
- MIC (Enterococcus faecalis [12]): 0.5 µg/mL (≈ 1.48 µM)
- MIC (Streptococcus suis [15]): 8 µg/mL (≈ 23.7 µM)
- MIC (Streptococcus pyogenes): < 0.06 µg/mL
- MIC (Streptococcus agalactiae): 1 µg/mL (≈ 2.96 µM)
- Activity (Staphylococcus aureus [40]): 4.05 log10CFU/ml
